The values that follow come from PubChem BioAssay AID180 (DTP/NCI, 2004).

The assay relates to BDF1 mice, Adenocarcinoma 755 s.c., tumor weight T/C. Nature of the assay: NCI In Vivo Anticancer Drug Screen. Data for tumor model Adenocarcinoma 755 (subcutaneous) in B6D2F1 (BDF1) mice. The following applies: endpoint: mean tumor weight, higher = larger tumour. In outline: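 Readout: T/C, i.e. treated-group measurement over vehicle-control measurement. Endpoint is survival or tumor size in tumor-bearing mice given compound.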

The mark [1] stands for this setting: dose: 37.5 mg/kg/injection, schedule: Q01DX011 (ip), vehicle: methylcellulose (MC).
Setting [2] is: dose: 75.0 mg/kg/injection, schedule: Q01DX011 (ip), vehicle: methylcellulose (MC).
Setting [3] is: dose: 150.0 mg/kg/injection, schedule: Q01DX011 (ip), vehicle: methylcellulose (MC).
Where [4] appears, read: dose: 30.0 mg/kg/injection, schedule: Q01DX011 (ip), vehicle: carboxymethylcellulose (CMC).
[5] abbreviates: dose: 60.0 mg/kg/injection, schedule: Q01DX011 (ip), vehicle: carboxymethylcellulose (CMC).
[6] abbreviates: dose: 120.0 mg/kg/injection, schedule: Q01DX011 (ip), vehicle: carboxymethylcellulose (CMC).
The mark [7] stands for this setting: dose: 25.0 mg/kg/injection, schedule: Q01DX011 (ip), vehicle: methylcellulose (MC).
Setting [8] is: dose: 2.0 mg/kg/injection, schedule: Q01DX011 (ip), vehicle: carboxymethylcellulose (CMC).
The mark [9] stands for this setting: dose: 45.0 mg/kg/injection, schedule: Q01DX011 (ip), vehicle: methylcellulose (MC).
The mark [10] stands for this setting: dose: 225.0 mg/kg/injection, schedule: Q01DX011 (ip), vehicle: methylcellulose (MC).

Values joined by “and” are separate entries in the source; they are usually repeats but may differ in a detail not shown here. Equal values may be shown once.

As for `C=CCn1cnc2c(Cl)ncnc21`, the T/C by setting is: (dose: 25.0 mg/kg/injection, schedule: Q01DX011 (ip), vehicle: carboxymethylcellulose (CMC)) 10 % of control; (dose: 50.0 mg/kg/injection, schedule: Q01DX011 (ip), vehicle: carboxymethylcellulose (CMC)) 6 % of control.
For `CC(C)Cn1cnc2c(SCc3ccccc3)nc(N)nc21`, the T/C runs as follows: under setting [1], 62 % of control; under setting [2], 27 % of control; under setting [3], 20 % of control; (dose: 300.0 mg/kg/injection, schedule: Q01DX011 (ip), vehicle: methylcellulose (MC)) 4 % of control.
As to `CCc1nc(N)nc(N)c1-c1ccc(Cl)c(Cl)c1`, the T/C runs as follows: (dose: 0.5 mg/kg/injection, schedule: Q01DX011 (ip), vehicle: methylcellulose (MC)) 51 % of control; (dose: 1.0 mg/kg/injection, schedule: Q01DX011 (ip), vehicle: methylcellulose (MC)) 62 % of control and 71 % of control; (dose: 2.0 mg/kg/injection, schedule: Q01DX011 (ip), vehicle: methylcellulose (MC)) 52 % of control.
As for `COc1cc(N=Nc2cccc(S(=O)(=O)O)c2)ccc1NC(=O)c1ccc(C(=O)Nc2ccc(N=Nc3cccc(S(=O)(=O)O)c3)cc2OC)cc1`, the T/C was 102 % of control under setting [4]; 105 % of control under setting [5]; 82 % of control under setting [6]; 57 % of control (dose: 240.0 mg/kg/injection, schedule: Q01DX011 (ip), vehicle: carboxymethylcellulose (CMC)).
`CC1CCCCN1/N=N/c1nc2c([nH]1)c(=O)n(C)c(=O)n2C` (stereo unspecified): the T/C is, setting by setting: under setting [7], 59 % of control; under setting [2], 68 % of control.
`[Cl][Pt+2]([Cl])([Cl])[Cl].[Na+].[S-]c1ncnc2nc[nH]c12.[S-]c1ncnc2nc[nH]c12`: the T/C is 90 % of control (dose: 1.0 mg/kg/injection, schedule: Q01DX011 (ip), vehicle: carboxymethylcellulose (CMC)); 101 % of control (dose: 1.7 mg/kg/injection, schedule: Q01DX011 (ip), vehicle: carboxymethylcellulose (CMC)); 43 % of control under setting [8]; 31 % of control (dose: 3.5 mg/kg/injection, schedule: Q01DX011 (ip), vehicle: carboxymethylcellulose (CMC)); 5 % of control (dose: 4.0 mg/kg/injection, schedule: Q01DX011 (ip), vehicle: saline); 3 % of control and 6 % of control (dose: 7.0 mg/kg/injection, schedule: Q01DX011 (ip), vehicle: carboxymethylcellulose (CMC)). Besides, the T/C is 4 % of control (dose: 8.0 mg/kg/injection, schedule: Q01DX011 (ip), vehicle: saline); 21 % of control (dose: 10.0 mg/kg/injection, schedule: Q01DX011 (ip), vehicle: carboxymethylcellulose (CMC)); 1 % of control and 2 % of control (dose: 14.0 mg/kg/injection, schedule: Q01DX011 (ip), vehicle: carboxymethylcellulose (CMC)); 1 % of control (dose: 20.0 mg/kg/injection, schedule: Q01DX011 (ip), vehicle: carboxymethylcellulose (CMC)); 5 % of control (dose: 28.0 mg/kg/injection, schedule: Q01DX011 (ip), vehicle: carboxymethylcellulose (CMC)); 1 % of control (dose: 32.0 mg/kg/injection, schedule: Q01DX011 (ip), vehicle: saline). In addition, the T/C was 96 % of control (dose: 43.8 mg/kg/injection, schedule: Q01DX011 (oral), vehicle: saline); 12 % of control (dose: 87.5 mg/kg/injection, schedule: Q01DX011 (oral), vehicle: saline); 7 % of control (dose: 175.0 mg/kg/injection, schedule: Q01DX011 (oral), vehicle: saline).
With `CN(C)c1ncnc2c1ncn2C1CCCCO1` (stereo unspecified), the T/C was 70 % of control (dose: 11.0 mg/kg/injection, schedule: Q01DX011 (ip), vehicle: methylcellulose (MC)); 47 % of control (dose: 22.5 mg/kg/injection, schedule: Q01DX011 (ip), vehicle: methylcellulose (MC)); 47 % of control under setting [9]; 20 % of control (dose: 90.0 mg/kg/injection, schedule: Q01DX011 (ip), vehicle: methylcellulose (MC)).
As to `Cc1cnc(SCc2ccccc2Cl)nc1SCc1ccccc1Cl`, the T/C is, setting by setting: (dose: 31.0 mg/kg/injection, schedule: Q01DX011 (ip), vehicle: methylcellulose (MC)) 81 % of control; (dose: 62.0 mg/kg/injection, schedule: Q01DX011 (ip), vehicle: methylcellulose (MC)) 65 % of control.
As for `Cn1c(=O)c2c(nc(C#N)n2C)n(C)c1=O`, the T/C reads like this: under setting [7], 104 % of control; under setting [2], 102 % of control; under setting [10], 58 % of control.
As for `Nc1ncnc2c1ncn2C1CCCC(CO)O1` (stereo unspecified), the T/C is 196 % of control (dose: 50.0 mg/kg/injection, schedule: Q01DX011 (ip), vehicle: saline); 115 % of control (dose: 100.0 mg/kg/injection, schedule: Q01DX011 (ip), vehicle: saline); 93 % of control (dose: 200.0 mg/kg/injection, schedule: Q01DX011 (ip), vehicle: saline).
For `Cn1c(=O)c2c(nc(N(CCO)CCO)n2C)n(C)c1=O`, the T/C (dose: 480.0 mg/kg/injection, schedule: Q01DX011 (ip), vehicle: saline) was 112 % of control.
With `Cc1ccc(N=Nc2c(S(=O)(=O)O)cc3cc(NC(=O)Nc4ccc5c(O)c(N=Nc6ccc7cc(S(=O)(=O)O)ccc7c6)c(S(=O)(=O)O)cc5c4)ccc3c2O)cc1`, the T/C is, setting by setting: under setting [9], 66 % of control; (dose: 65.0 mg/kg/injection, schedule: Q01DX011 (ip), vehicle: methylcellulose (MC)) 42 % of control; under setting [3], 30 % of control.
Regarding `O=C(O)CC(Nc1ncnc2nc[nH]c12)C(=O)O` (stereo unspecified), the T/C was 105 % of control (dose: 12.0 mg/kg/injection, schedule: Q01DX011 (ip), vehicle: methylcellulose (MC)); 98 % of control under setting [7]; 103 % of control (dose: 50.0 mg/kg/injection, schedule: Q01DX011 (ip), vehicle: methylcellulose (MC)); 45 % of control (dose: 100.0 mg/kg/injection, schedule: Q01DX011 (ip), vehicle: methylcellulose (MC)).
Consider `Cc1ccc2ccccc2c1CSc1nc(N)nc2c1ncn2CC(C)C`, for which the T/C runs as follows: under setting [7], 115 % of control; under setting [2], 80 % of control; under setting [10], 97 % of control.
In the case of `CNC(=O)NO`, the T/C was 65 % of control (dose: 50.0 mg/kg/injection, schedule: Q01DX011 (ip), vehicle: water) and 43 % of control (dose: 100.0 mg/kg/injection, schedule: Q01DX011 (ip), vehicle: water).
Turning to `O=c1[nH]c2cnc(Cl)nc2[nH]1`, the T/C is, setting by setting: under setting [4], 116 % of control; under setting [5], 85 % of control; under setting [6], 168 % of control.
Turning to `CC(C)CSc1nc(N)nc2c1ncn2C1OC(CO)C(O)C1O` (stereo unspecified), the T/C is 54 % of control (dose: 2.32 mg/kg/injection, schedule: Q01DX011 (ip), vehicle: methylcellulose (MC)); 37 % of control (dose: 4.65 mg/kg/injection, schedule: Q01DX011 (ip), vehicle: methylcellulose (MC)); 25 % of control (dose: 9.3 mg/kg/injection, schedule: Q01DX011 (ip), vehicle: methylcellulose (MC)); 12 % of control and 15 % of control (dose: 18.75 mg/kg/injection, schedule: Q01DX011 (ip), vehicle: methylcellulose (MC)); 3 % of control under setting [1]; 2 % of control under setting [2]. Further, the T/C under setting [3] was 2 % of control.
As to `CCCCCCCCCCCCCCCCC(C(=O)O)C(O)(CC(=O)O)C(=O)O` (stereo unspecified), the T/C by setting is: (dose: 19.0 mg/kg/injection, schedule: Q01DX011 (ip), vehicle: carboxymethylcellulose (CMC)) 96 % of control; (dose: 37.5 mg/kg/injection, schedule: Q01DX011 (ip), vehicle: carboxymethylcellulose (CMC)) 49 % of control; (dose: 75.0 mg/kg/injection, schedule: Q01DX011 (ip), vehicle: carboxymethylcellulose (CMC)) 59 % of control.
For `CCCCNS(=O)(=O)c1ncnc2nc[nH]c12`, the T/C under setting [8] is 115 % of control; the T/C (dose: 6.0 mg/kg/injection, schedule: Q01DX011 (ip), vehicle: carboxymethylcellulose (CMC)) was 44 % of control; the T/C (dose: 12.0 mg/kg/injection, schedule: Q01DX011 (ip), vehicle: carboxymethylcellulose (CMC)) was 13 % of control.

For orientation: T/C means the ratio of treated to control.
